Where a name gives a salt, the structure may show the parent alone.
Legend:
[1] = everted rat gut sac model; cited from earlier work
Caco-2 cell monolayers [2] = experiment: Transepithelial electrical resistance (TEER) measurement; format: cell-based, human
Description: The cell monolayer integrity was examined by measuring the TEER and evaluating the cell permeability to FD-4 in Caco-2 cell monolayers. The experiments were performed after Caco-2 cells formed polarized monolayers. Cells were seeded onto polycarbonate 12-well Transwell® filter inserts (Corning Costar Corp., Cambridge, MA, USA; pore size 0.4 μm, growth area 1.12 cm^2) at a density of 1 × 10^6 cells/mL, and the cells were grown for 21 days before the TEER study was conducted. After the application of 0.5% SN, TEER was measured at time intervals of 20 min for a period of 120 min. Then, the reversibility of SN on TEER was measured by removing SN from the apical compartment and replacing it with serum-free DMEM for a further 120 min at 20-min intervals. To observe the effect of PKC to SN, cells in another group were treated with 0.5% SN and 10 μM Ro318220 (PKC inhibitor) together for 120 min at 20-min intervals. Control experiments were performed under the same conditions but without SN. All of the experiments were performed in triplicate at 37 °C in an atmosphere of 90% relative humidity and 5% CO2. The TEER measurements across Caco-2 cell monolayers were performed using a Millicell ERS instrument (Millipore, Bedford, MA, USA). The TEER values of these cells after treatment were recorded. Resistance due to the cell monolayers was determined in the presence and the absence of SN after subtracting the contribution of the blank filter. The percent change in TEER was calculated as follows:
(1) TEER=(R1-R0)×A (Ω·cm^2)
where R1 and R0 represent the TEER readings from the wells with cells and the no-cell background wells, respectively, and A (cm^2) represents the surface area of the cell monolayer on the insert.
(2) TEER%=TEERtest/EERinitial×100

Caco-2 cell monolayers [3] = experiment: LDH release cytotoxicity assay; format: cell-based, human
Description: To examine the toxic effects of SN to the Caco-2 cells, a lactate dehydrogenase (LDH) release assay was performed according to Madara and Stafford. The Caco-2 monolayer, which had been cultured in 24-well plates for 21 days, was washed with 500 μL of the PBS and was then incubated with 500 μL of the PBS containing the samples (0.5%, 1%, 2% w/v SN) to be tested at 37 °C for 120 min. Control experiments were performed under the same conditions but without SN. The amounts of LDH in the supernatant were determined using the enzymatic method and following the manufacturer’s instructions of LDH-Cytotoxic test kit from Nanjing KeyGEN Biotech. CO., Ltd. (Nanjing, China). Cytotoxicity was determined after 120 min of SN treatment, and the absorbance at 440 nm (reference wavelength was 650 nm) was measured to determine LDH activity. The cytotoxicity to the Caco-2 cell monolayers was expressed by the ratio of LDH released into the supernatant compared with the control group.
The LDH activity was calculated thus: (U/L) = (ODu − ODc)/(ODs − ODb) × Cs × N × 1000, where ODu, ODc, ODs, ODb represent the absorbance of the test tube, control tube, standard tube, and background tube, respectively, C represents the standard concentration (2 mmol/L) and N represents the dilution ratio of the sample.

PKC-α = PKC-α translocation cytosol to membrane (western blot); format: cell-based, human; details: Caco-2 cells, 0.5% SN, 2 h
Description: Caco-2 cells were grown on 6-well plates and were treated with SN as described above. After treatment, cytosolic, membrane and total protein were extracted following the manufacturer’s instructions of the test kit from Nanjing KeyGEN Biotech. CO., LTD (China). The protocols for western blot analyses have been described previously. The protein concentration was calculated using the BCA Protein Assay Kit from Nanjing KeyGEN Biotech. CO., LTD (China). Equal amounts of protein samples (30 μg protein) were separated onto SDS-polyacrylamide gels (PKC and β-actin were 12% gels, claudin-1 was 15% gels), and the separated proteins were transferred to a PVDF membrane. After blocking in 5% skim milk in Tris-buffered saline containing 0.05% Tween-20 (TTBS), the PVDF membrane was incubated overnight in blocking buffer with diluted primary antibodies: anti-claudin-1 (Abcam, Cambridge, MA, USA, 1:1000 dilution), anti-PKC-α (Beyotime Institute of Biotechnology, China, 1:500 dilution), and anti-β-actin (Zhongshan Goldenbridge Biological Technology, Beijing, China, 1:500 dilution), at 4 °C. […] The product bands were photographed, and the density of each product band was quantified. The intensity of each signal was corrected using the values obtained from the immunodetection of β-actin, and the relative protein intensity was expressed as folds of the content in the normal group.

claudin-1 = experiment: Claudin-1 gene and protein expression (real-time PCR, western blot, immunofluorescence); format: cell-based, human; details: Caco-2 monolayers
Description: Caco-2 cells were grown on 6-well plates for 21 days and were then treated with SN for 2 h. Then, SN was removed by washing the cells with PBS twice. The cells were grown with new culture medium for another 2 h. To observe the effect of PKC on SN, cells in another group were treated with 0.5% SN and 10 μM Ro318220 together for 2 h. Control experiments were performed under the same conditions but without SN. The gene level expressions induced by SN treatment and after its removal were investigated. Total RNA was extracted following a standard guanidinium phenol-chloroform extraction protocol. The quantity of mRNA was determined by measuring the optical density at 260 nm (A260 nm = 1 for 40 μg/mL RNA), and the purity of mRNA was assessed by determining the ratio of the optical density obtained at 260 and 280 nm (pure RNA: A260 nm/A280 nm = 2.0) using a UV-1206 spectrophotometer (Shimadzu, Tokyo, Japan). […] Quantitative real-time PCR was performed using the Applied Biosystems 7500 faster Real-Time PCR System with the SYBR® Premix Ex Taq™ (Tli RNaseH Plus) Master Mix purchased from Takara Bio Inc. (Dalian, China) in triplicate for each sample and each gene. […] The results were expressed as the folds of the CT value for the target mRNA to that of the β-actin mRNA. […]

Caco-2 cell monolayers [4] = experiment: FD-4 permeability (paracellular flux); format: cell-based, human; details: 0.1% FD-4 apical, 0.5% SN with or without 10 μM Ro318220, up to 120 min, PBS pH 7.4, fluorescence
Description: The integrity of the cell monolayer TJs was also examined by evaluating the FD-4 permeability in PBS adjusted to pH 7.4. A volume of 0.5 mL of 0.1% FD-4 containing 0.5% SN or 0.5% SN + 10 μM Ro318220 was added to the apical side of Caco-2 cell monolayers. The medium in basolateral side was buffered by the addition of 1.5 mL PBS to each well. Samples of 0.1 mL were withdrawn at time intervals of 30, 60, 90 and 120 min from the basolateral side after the incubation of the solutions on the apical side of cell monolayers. The samples withdrawn were replaced with an equal volume of buffered PBS. Control experiments were performed using a solution of 0.1% FD-4 alone. All of the experiments were performed in triplicate at 37 °C in an atmosphere of 90% relative humidity and 5% CO2. Basolateral solutions were then sampled and analyzed.
Quantitative analysis of FD-4: Samples were centrifuged at 10,000 rpm for 10 min, and the supernatant was analyzed using a fluorescence spectrophotometer at an excitation wavelength of 495 nm and an emission wavelength of 520 nm (Hitachi, FP6500, Tokyo, Japan).
Permeation clearance: ΔQ/(Δt × C0), where ΔQ/Δt is the permeation flux, i.e., the transport rate (μg/min), and C0 is the initial concentration on the donor side (μg/mL). Clearance was obtained per unit surface area and expressed as nL/min/cm2.

[5] = OCT transport across Caco-2 cell monolayers; format: in vitro ADME, human; details: Caco-2, 21 days, Transwell, 10 μM OCT with or without 0.5% SN, PBS pH 7.4, 120 min, 37 °C, LC-MS/MS, triplicate, mean ± s.d.
Description: Caco-2 cells were seeded onto polycarbonate 12-well Transwell® filter inserts as described above. The OCT transport experiment was performed in the apical-to-basolateral directions in PBS adjusted to pH 7.4 [7]. A volume of 0.5 mL of 0.5% SN containing 10 μM OCT was added to the apical side of Caco-2 cell monolayers. The medium in the basolateral side was buffered by the addition of 1.5 mL PBS of each well. Samples of 0.1 mL were withdrawn at time intervals of 30, 60, 90 and 120 min from the basolateral side after the incubation of the solutions on the apical side of cell monolayers. The samples withdrawn were replaced with an equal volume of buffered PBS. Control experiments were performed using a solution of OCT alone. […]
The results were corrected for dilution and plotted as the percentage cumulative OCT transported as a function of time. The apparent permeability coefficients (Papp) were calculated according to the following equation [33]: Papp = ΔQ/(Δt × A × C0) (cm/s), where ΔQ/Δt is the amount of OCT transported within a given time period or permeability rate (ng/min), A is the surface area of the cell monolayer on the insert (cm^2) and C0 is the initial drug concentration (ng/mL). Permeation enhancement ratios (R) were calculated from the Papp values using the following equation R = Papptest/Pappcontrol.

C[C@@]12C[C@@]3(O)O[C@@H](O1)[C@]1(COC(=O)c4ccccc4)[C@H]3C[C@@]12O[C@@H]1O[C@H](CO)[C@@H](O)[C@H](O)[C@H]1O [paeoniflorin]
increase of paeoniflorin absorption when co-incubated with SN [1]: approximately 2.5 fold

COC1=C[C@@H]2[C@@H]3Cc4ccc(OC)c(O)c4[C@]2(CCN3C)CC1=O [SN, Sinomenine hydrochloride]
TEER recovery after SN removal vs control (Caco-2 cell monolayers [2]; 0.5% SN 120 min, then removal, at 240 min): no difference compared with the control
effect on TEER at 120 min vs control (Caco-2 cell monolayers [2]; 0.5% SN with or without 10 μM Ro318220, 120 min, Caco-2 monolayers, triplicate): strong reduction of TEER
TEER relative to the initial value (Caco-2 cell monolayers [2]; 0.5% SN, 120 min incubation, pH 7.4, Caco-2 monolayers): 43%
time for transient and reversible opening of TJ (Caco-2 cell monolayers [2]; 0.5% SN, Caco-2 monolayers, recovery after removal): 2 h
LDH release vs control (Caco-2 cell monolayers [3]; 0.5% w/v SN, 120 min, PBS 37 °C, Caco-2 monolayers cultured 21 days): did not differ from the control
cytotoxicity by LDH test (Caco-2 cell monolayers [3]; 1% w/v SN, 120 min, Caco-2 monolayers): cytotoxic effects
LDH release vs control (Caco-2 cell monolayers [3]; 2% w/v SN, 60 min, Caco-2 monolayers): markedly increased LDH activity
cytotoxicity by LDH test (Caco-2 cell monolayers [3]; 2% w/v SN, 120 min, Caco-2 monolayers): cytotoxic effects
PKC-α distribution between cytosolic and membrane fraction (PKC-α): most PKC-α was present in the membrane fraction
claudin-1 expression after SN removal (claudin-1; 0.5% SN 2 h, then 2 h after removal): returned to its normal level
claudin-1 gene and protein expression vs control (claudin-1; 0.5% SN with or without 10 μM Ro318220, 2 h): distinct loss of claudin-1 gene
FD-4 flux (A-B) (Caco-2 cell monolayers [4]): time-dependent increase in FD-4 flux

C[C@@H](O)[C@@H]1NC(=O)[C@H](CCCCN)NC(=O)[C@@H](Cc2c[nH]c3ccccc23)NC(=O)[C@H](Cc2ccccc2)NC(=O)[C@@H](NC(=O)[C@H](N)Cc2ccccc2)CSSC[C@@H](C(=O)N[C@H](CO)[C@@H](C)O)NC1=O [OCT, Octreotide]
Papp A→B [5]: 2.67 ± 0.015 ×10⁻⁶ cm/s

— paper PMC3709818, “A Novel Perspective and Approach to Intestinal Octreotide Absorption: Sinomenine-Mediated Reversible Tight Junction Opening and Its Molecular Mechanism” (International Journal of Molecular Sciences, 2013)
